Legend:
[1] = target: mutant BRAF enzyme (BRAF-V600E) (Homo sapiens (Human), UniProt P15056, V600E); assay: RAF inhibition assay (TB-PMAP2K1 kit), BRAF-V600E; type: biochemical; details: FLUORESCEIN-MAP2K1 substrate, 60 min reaction
[2] = target: mutant CRAF enzyme (RAF1 Y340D and Y341D) (Homo sapiens (Human), UniProt P04049, Y340D/Y341D); assay: RAF inhibition assay (TB-PMAP2K1 kit), mutant CRAF; type: biochemical; details: FLUORESCEIN-MAP2K1 substrate, 60 min reaction
mutant CRAF enzyme (RAF1 Y340D and Y341D), sequence (P04049 whole entry Y340D/Y341D): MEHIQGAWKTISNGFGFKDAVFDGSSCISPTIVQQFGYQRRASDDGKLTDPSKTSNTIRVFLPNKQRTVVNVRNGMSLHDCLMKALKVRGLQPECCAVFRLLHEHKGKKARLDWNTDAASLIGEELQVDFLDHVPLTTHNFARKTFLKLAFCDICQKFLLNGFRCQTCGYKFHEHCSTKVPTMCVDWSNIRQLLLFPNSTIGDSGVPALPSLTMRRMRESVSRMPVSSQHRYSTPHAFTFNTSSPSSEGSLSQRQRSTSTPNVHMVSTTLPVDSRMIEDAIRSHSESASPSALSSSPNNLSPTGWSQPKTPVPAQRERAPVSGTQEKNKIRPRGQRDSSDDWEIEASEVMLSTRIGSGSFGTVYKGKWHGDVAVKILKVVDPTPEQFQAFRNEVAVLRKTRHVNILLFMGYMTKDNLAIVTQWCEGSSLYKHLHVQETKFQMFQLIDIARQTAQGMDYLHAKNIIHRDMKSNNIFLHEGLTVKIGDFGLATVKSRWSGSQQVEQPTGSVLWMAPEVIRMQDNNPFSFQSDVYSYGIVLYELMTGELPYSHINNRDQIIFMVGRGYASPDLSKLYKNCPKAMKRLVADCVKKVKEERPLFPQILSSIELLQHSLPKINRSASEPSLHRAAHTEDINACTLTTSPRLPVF

mutant BRAF enzyme (BRAF-V600E), sequence (P15056 whole entry V600E): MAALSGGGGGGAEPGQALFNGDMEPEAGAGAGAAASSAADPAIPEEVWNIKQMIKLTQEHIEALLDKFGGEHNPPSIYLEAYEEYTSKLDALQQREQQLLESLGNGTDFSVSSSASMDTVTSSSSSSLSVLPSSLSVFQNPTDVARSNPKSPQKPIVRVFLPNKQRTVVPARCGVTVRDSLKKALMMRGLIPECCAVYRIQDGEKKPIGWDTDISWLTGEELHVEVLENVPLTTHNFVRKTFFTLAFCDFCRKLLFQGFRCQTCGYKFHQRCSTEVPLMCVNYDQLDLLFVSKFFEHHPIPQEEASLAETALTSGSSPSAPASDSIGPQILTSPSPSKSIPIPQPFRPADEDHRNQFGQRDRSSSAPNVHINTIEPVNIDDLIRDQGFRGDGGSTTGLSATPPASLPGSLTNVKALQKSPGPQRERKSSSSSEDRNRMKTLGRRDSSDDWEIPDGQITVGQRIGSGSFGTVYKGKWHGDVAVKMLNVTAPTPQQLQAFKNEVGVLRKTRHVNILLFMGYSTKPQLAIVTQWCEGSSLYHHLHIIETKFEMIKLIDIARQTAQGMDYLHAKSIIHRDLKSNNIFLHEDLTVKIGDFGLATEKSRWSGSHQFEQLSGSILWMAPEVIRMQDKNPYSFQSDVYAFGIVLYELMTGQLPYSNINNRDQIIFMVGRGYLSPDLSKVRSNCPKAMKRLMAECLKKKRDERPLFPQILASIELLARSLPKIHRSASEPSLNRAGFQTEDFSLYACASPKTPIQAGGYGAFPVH

| Compound | IC50 [1] [nM] | IC50 [2] [nM] |
| --- | --- | --- |
| Cc1ccc2c(Nc3cccc(Cl)c3F)nccc2c1NC(=O)c1cc(F)cc2c(N)ncnc12 [Compound 46, 4-amino-N-(1-((3-chloro-2-fluorophenyl)amino)-6-methylisoquinolin-5-yl)-6-fluoroquinazoline-8-carboxamide] | 16.2 ± 5.93 | 38.1 ± 21.9 |
| Cc1ccc2c(Nc3ccc(Cl)cc3F)nccc2c1NC(=O)c1cccc2c(N)ncnc12 [Compound 41, 4-amino-N-(1-((4-chloro-2-fluorophenyl)amino)-6-methylisoquinolin-5-yl)quinazoline-8-carboxamide] | 12.7 ± 2.28 | 25 ± 9.32 |
| Cc1ccc2c(Nc3cccc(Cl)c3F)nccc2c1NC(=O)c1ccc(F)c2c(N)ncnc12 [Compound 93, 4-amino-N-(1-((3-chloro-2-fluorophenyl)amino)-6-methylisoquinolin-5-yl)-5-fluoroquinazoline-8-carboxamide] | 5.03 ± 0.54 | 5.73 ± 0.36 |
